Tests used:
[1] = system: MCF-7 ras breast cancer cell line; assay: synergistic growth inhibition by C-6 and C-8 analogue combination; assay type: cell-based; conditions: Homo sapiens, MCF7; alone, 1.0 μM; read-out: percentage growth inhibition of analogue added alone
Procedure: (§1) All breast cancer cell lines were grown in IMEM supplemented with 10% fetal bovine serum, 20 mM HEPES, penicillin-streptomycin, and extra glutamine. Colon carcinoma cell lines were grown in EMEM supplemented with 10% FBS, EMEM, NEAA, HEPES 20 mM, extra glutamine, and penicillin-streptomycin. The cells were grown at 37° C. in humidified incubators in an atmosphere of 5% CO2.
(§2) For cell growth experiments, 2-3×10^5 cells/60 mm dish were seeded, and 24 hours later (Day 0), the medium was removed, and fresh medium and the additives were added then and every 48 hours thereafter The compounds of the present invention were added using 100× concentrated stock solutions. At desired times, cell counts in duplicate were performed on a Coulter counter after harvesting the cells with gentle trypsinization.
Synergism quotient was defined as the net growth inhibitory effect of the analogue combination divided by the sum of the net analogue effects on growth inhibition A quotient of >1 indicates a synergistic effect, while a quotient of <1 indicates an antagonistic effect.
Synergism of growth inhibition was determined by treatment of
cells with C-6 analogues and C-8 analogues alone and in combination at
Day 0 and Day 2 and counting the cell number at Day 4

[2] = system: breast and colon cancer cell lines; assay: cell cycle progression of breast and colon cancer cell lines; assay type: cell-based, human; conditions: vs untreated control cells
Procedure: DNA histograms were generated on FACS II by using the DNA intercalating dye propidium iodide as described by Braylan et al. (Cytometry 2: 337-343, 1982). The percentage of cells in each cycle phase was calculated by using a PDP-11/34 computer and software as described by Neckers et al. (Mol. Cell. Biol. 6: 4244-4250, 1986).
A determination was made whether the reduced cell proliferation observed in the cancer cell lines after treatment with the compounds of the present invention is due to a specific block in one phase of the cell cycle.

[3] = system: LS-174T; assay: growth of LS-174T cells; assay type: cell-based; conditions: Homo sapiens, LS174T, 72 h; 10 microM, 3 days
Procedure: (§3) M is marker proteins of known molecular weight.
as §1, §2

[4] = system: p21 ras protein (MCF-7 cells); assay: Western blotting of p21 ras protein in MCF-7 cells; assay type: cell-based, human; conditions: 10 microM, three days
Procedure: Western blotting of p21 protein was performed as described below. […] V is cell lysate from Ha-MuSV-transformed NIH3T3 clone 13-3B-4. M, marker proteins of known molecular weight.
Cellular proteins present in cell extracts were separated by 12% SDS-PAGE and transferred to nitrocellulose sheets in transfer buffer (25 mM Tris, 192 mM glycine, 20% methanol, pH 7.4). Nitrocellulose sheets were washed and first incubated with 3% bovine serum albumin in NTE-NP40 (50 mM Tris-HCl, pH 7.5, 150 mM NaCl, 2 mM EDTA, 0.1% Nonidet P-40) for three hours at 37° C. and then sequentially incubated with medium containing p21 monoclonal antiserum Y13-259 directed against the Ha-MuSV-encoded p21 for sixteen hours at 4° C., rabbit anti-rat IgG for 2.5 hours in an ice-water bath, and 5×10^5 cpm/ml ^125 I-protein A for one hour in an ice-water bath. The nitrocellulose sheets were air-dried and exposed to Kodak XAR film for 12-36 hours at -20° C. Comparison of the resulting autoradiograms with others in which normal rat serum was substituted for p21 monoclonal antibody permitted identification of p21. To provide a reference p21, cell lysates were prepared from NIH 3T3 clone 13-3B-4 that had been transfected with Ha-MuSV DNA.
The levels of p21 protein are expressed relative to the p21 level in the untreated control cells, which is set equal to 1.0 O.D.

[5] = system: R^II; conditions: cited from earlier work
[6] = system: R^I and R^II cAMP receptor proteins in breast (MDA-MB-231) and colon (LS-174T) cancer cells; assay: R^I and R^II cAMP receptor protein levels in breast and colon cancer lines (FIG. 6); assay type: cell-based, human
Procedure: as §3
(§4) The incubations were carried out at 23° C. for 60 minutes in 96-well immunoplates. The reaction mixtures were then irradiated for 30 seconds at 254 nm, placing a Mineralite UVS-11 hand lamp directly onto the plate. The samples were mixed with 25 microliters of 3× sample buffer (3% SDS, 15% beta-mercaptoethanol, 30 mM Tris, 30% glycerol, 1% bromophenol blue saturated solution), boiled for 3 minutes, and centrifuged at 700×g for five minutes. The samples containing 50-100 micrograms of protein were subjected to 0.05% SDS-12% PAGE. The gels were fixed, dried, and exposed to X-ray films overnight. The protein concentrations were determined by the method of Lowry et al., (J. Biol. Chem. 193: 265-275, 1951) with bovine serum albumin as standard.

[7] = system: DMBA-1; assay: growth of transplantable DMBA-1 rat mammary carcinoma; assay type: in vivo; conditions: pellet with 10 mg cAMP analogue, day 7
Procedure: DMBA-1, a variant of primary hormonedependent DMBA tumor,
hormoneindependent and transplantable.
8Cl-cAMP and DBcAMP were given as a 20mg pellet consisting of 10 mg of […]

[8] = system: R^I cAMP receptor protein (MDA-MB-231); assay: photoaffinity labelling of R^I cAMP receptor protein, MDA-MB-231; assay type: cell-based, human; conditions: 10 microM, 3 days; control 1.0
Procedure: as §3, §4
The levels of the receptor proteins are expressed relative to the R^I level in the untreated control cells of MDA-MB-231 and LS-174T, which are each set equal to 1.0 O.D.; the scale was expanded to differentiate the lower intensity bands.

[9] = system: DMBA-induced mammary carcinomas; assay: in vivo growth of DMBA-induced mammary carcinomas in rats; design: species or system rat
Procedure: […] |DMBA-induced mammary carcinomas in rats […] | 10 mg. cholesterol), was implanted on day 0 and day 14.

[10] = system: breast and colon cancer cells; assay: effect on cell morphology; assay type: cell-based, human
Text: The photographs were taken on Day 4, ×160.
Furthermore, the synergistic growth inhibitory effect of C-6 and C-8 analogue combinations was also reflected in the change in the cell morphology.

[11] = system: murine leukemia L1210; assay: life span of L1210-inoculated BDF1 mice; assay type: in vivo, mouse
Text: | Infusions by Harvard pumps.

[12] = system: HT-29 colon cancer cell line
[13] = system: mammary tumor inductions by DMBA; assay: DMBA mammary tumor induction (FIG. 8); assay type: in vivo; conditions: 10 mg pellet one day before DMBA

Nc1ncnc2c1nc(Cl)n2[C@@H]1O[C@@H]2COP(=O)(O)O[C@H]2[C@H]1O [8-Cl-cAMP]
inhibition at 1 µM [1]: 20%
fractions of cells in G1, S and G2/M phases, in words [2]: not appreciably different
activity at 10 µM [3]: 30%
p21 level, in words [4]: markedly decreased level of p21
site selectivity of binding, R^II [5]: selectively binds to site 1
increase in the ratio of R^II to R^I ([6]; densitometry): two- to three-fold increase
48,000 R^I receptor protein, in words ([6]; three days, 10 microM): concomitant decrease
52,000 MW (R^II) receptor protein, in words ([6]; three days, 10 microM): increased appreciably
Change in mean tumor volume [7]: 1.60 cm^3
R^I relative level [8]: 0.25 ± 0.03
tumor growth, in words ([9]; 10 mg pellet implanted twice every two weeks): completely stopped tumor growth
tumor regression within 30 days ([9]; within 30 days): ~100%
morphological change ([10]; 1 microM alone, four days): did not induce a change in the cell morphology
morphological change ([10]; 50 microM, four to five days): characteristic morphological change
antitumor effect ([11]; 104 mg/kg bolus injection, seven consecutive days): no antitumor effect
tolerability in L1210-bearing mice ([11]; 104 mg/kg bolus, seven consecutive days): tolerated
increase in mean life span ([11]; 104 mg/kg/day constant infusion, five days): 37%
8-Cl-adenosine in cell extracts [12]: no 8-Cl-adenosine was present
8-Cl-adenosine in cell extracts or medium [12]: 8-Cl-adenosine was not detected
8-Cl-adenosine in medium [12]: no 8-Cl-adenosine was present
cell penetration of intact compound [12]: penetrated the cell
reduction in the total number of tumors produced [13]: 70%
